Test results from patent US20210252032A1, “DRUGS FOR GRP78 CELL SURFACE TRANSLOCATION AND PAR-4 SECRETION” (University of Kentucky Research Foundation, priority 2020, published 2021).
Entries after “also recorded” stand apart in the source; their conditions may differ.

Columns and labels:
[1] = system: LLC1-derived lung tumor nodules; conditions: CQ in conjunction with CZT, relative to CZT or CQ administered separately; cited from earlier work
lung cancer cells [2] = conditions: previous studies (background); cited from earlier work
cancer cells = assay: Cell surface expression of GRP78 in cancer cells (FIG. 1 legend); format: cell-based
[3] = system: normal lung fibroblast HEL cells; assay: GRP78 cell surface expression in normal HEL cells (FIG. 1); format: cell-based
Text: (§1) To maximize the apoptotic effect of secreted Par-4 on lung tumors, the second active agent is effective to elevate GRP78 on the surface of cancer cells and thereby complements the apoptotic action of secreted Par-4. […] Approximately 5% of patients with non-small cell lung cancer (NSCLC) have tumors that contain an inversion in chromosome 2 that juxtaposes the 5′ end of the echinoderm microtubule-associated protein-like 4 (EML4) gene with the 3′ end of the ALK gene. This juxtaposition results in the fusion oncogene called EML4-ALK. ALK+ tumors are highly sensitive to therapy with ALKtargeted inhibitors. […] On the other hand, phosphorylation of SRC at tyrosine 530 (Y530) by C-terminal SRC kinase (Csk) and Csk homologous kinase results in inactivation of SRC.

epithelial BEAS2B cells = assay: GRP78 cell surface expression in normal BEAS2B cells (FIG. 1); format: cell-based
Text: as §1

[4] = system: p53-deficient KP7B lung tumor cells; assay: GRP78 cell surface expression in KP7B lung tumor cells (FIG. 1); format: cell-based
Text: as §1

lung cancer cells [5] = assay: GRP78 cell surface translocation in lung cancer cells (FIG. 2); format: cell-based; conditions: nanomolar concentrations
Text: as §1

[6] = system: tyrosine-protein kinase SRC; assay: SRC activation (FIG. 3); format: cell-based; conditions: lung cancer cells
Text: Dephosphorylation of Y530 by phosphatases results in autophosphorylation of SRC at Y419, leading to activation. SRC activation triggers a signaling cascade that prevents retrograde trafficking of proteins from the Golgi to the ER and promotes GRP78 translocation from the Golgi to the cell surface.

normal cells = assay: Par-4 secretion from normal cells; format: cell-based; conditions: levels relative to those achieved previously with chloroquine

CCN(CC)CCCC(C)Nc1ccnc2cc(Cl)ccc12 (stereo not drawn) [CQ, chloroquine]
inhibition of LLC1-derived lung tumor nodules [1]: significantly greater inhibition

C[C@@H](Oc1cc(-c2cnn(C3CCNCC3)c2)cnc1N)c1c(Cl)ccc(F)c1Cl [CZT, Crizotinib]
Par-4 receptor GRP78 levels on lung cancer cells (lung cancer cells [2]): inducer
cell surface expression of GRP78 in cancer cells (cancer cells): induces
Par-4 receptor GRP78 on the cell surface [3]: not
Par-4 receptor GRP78 on the cell surface (epithelial BEAS2B cells): not
Par-4 receptor GRP78 on the cell surface [4]: elevated

COCCn1c2c([n+](Cc3cnccn3)c1C)C(=O)c1ccccc1C2=O [YM155]
GRP78 cell surface translocation (lung cancer cells [5]): induce cell surface expression of GRP78; also recorded: induced GRP78 cell surface translocation

CCc1cc2c(cc1N1CCC(N3CCOCC3)CC1)C(C)(C)c1[nH]c3cc(C#N)ccc3c1C2=O [alectinib]
activation of SRC [6]: cause the activation of SRC

COc1cc(Nc2ncc3c(n2)-c2ccc(Cl)cc2C(c2c(F)cccc2OC)=NC3)ccc1C(=O)O [alisertib]
GRP78 cell surface translocation (lung cancer cells [5]): induce cell surface expression of GRP78; also recorded: induced GRP78 cell surface translocation

COc1cccc2c1C(=O)c1c(O)c3c(c(O)c1C2=O)C[C@@](O)(C(=O)CO)C[C@@H]3O[C@H]1C[C@H](N)[C@H](O)[C@H](C)O1 [doxorubicin]
Par-4 secretion from normal cells (normal cells): comparable to, or higher than

COc1cc([C@@H]2c3cc4c(cc3[C@@H](O[C@@H]3O[C@@H]5CO[C@@H](C)O[C@H]5[C@H](O)[C@H]3O)[C@H]3COC(=O)[C@H]23)OCO4)cc(OC)c1O [etoposide]
Par-4 secretion from normal cells (normal cells): comparable to, or higher than

CCc1c2c(nc3ccc(OC(=O)N4CCC(N5CCCCC5)CC4)cc13)-c1cc3c(c(=O)n1C2)COC(=O)[C@]3(O)CC [irinotecan]
Par-4 secretion from normal cells (normal cells): comparable to, or higher than
